Test results: patent EP4603105A1, “PHARMACEUTICAL COMPOSITION CONTAINING CYCLIC COMPOUND HAVING SELECTIVE KRAS INHIBITORY EFFECT AGAINST HRAS AND NRAS” (CHUGAI SEIYAKU KABUSHIKI KAISHA, priority 2022, dated 2024)
Where a SMILES comes first, the peptide text is derived from it. Bridges are numbered along the chain shown (N, C = ends). [ ]: non-standard residue; d: D form. The star is where a group is joined. hPhe(3-Cl-4-CF3) = N[C@@H](CCc1ccc(C(F)(F)F)c(Cl)c1)C(=O)O; NPrPhe(4-CF3) = CCCN[C@@H](Cc1ccc(C(F)(F)F)cc1)C(=O)O; NMeGly(cPent) = CN[C@H](C(=O)O)C1CCCC1; Pro(4,4-F2) = O=C(O)[C@@H]1CC(F)(F)CN1; NEtPhe = CCN[C@@H](Cc1ccccc1)C(=O)O; NMeGly(cBu) = CN[C@H](C(=O)O)C1CCC1; NMeD = CN[C@@H](CC(=O)O)C(=O)O; NMeL = CN[C@@H](CC(C)C)C(=O)O; Morpholide = C1CN(*)CCO1; NMeA = CN[C@@H](C)C(=O)O; Ac5c = NC1(C(=O)O)CCCC1; Aze = O=C(O)[C@@H]1CCN1; NPrGly = CCCNCC(=O)O; NEtG = CCNCC(=O)O; Sar = CNCC(=O)O

Tests used:
[1] = biological target: GDP-bound NRAS wild-type protein (Homo sapiens, UniProt P01111); assay: Binding to NRAS by surface plasmon resonance (SPR), KD and KD ratio to KRAS
Chain of GDP-bound NRAS wild-type protein (P01111 whole entry): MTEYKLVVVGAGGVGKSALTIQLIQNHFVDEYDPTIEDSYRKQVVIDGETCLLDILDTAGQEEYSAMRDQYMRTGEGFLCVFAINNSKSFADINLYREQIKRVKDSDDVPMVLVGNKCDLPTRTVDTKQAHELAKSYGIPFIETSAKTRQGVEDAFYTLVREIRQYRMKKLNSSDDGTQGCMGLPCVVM
Method: (§1) Surface plasmon resonance was used to analyze the binding affinity of compounds for KRAS, NRAS, and HRAS. The apparatus used was Biacore 8K, 8K+, or T200 (GE Healthcare), and the running buffer used was HBS (10 mM HEPES-NaOH, 150 mM NaCl, pH 7.4) containing 1 mM DTT, 10 mM MgCl2, 0.01% Tween 20, 10 µM GDP, and 4% DMSO.
(§2) Biotinylated Avi-tag fusion KRAS, NRAS, and HRAS proteins were expressed in E. coli BL21 (DE3) strains, and after cells were homogenized, they were purified using Streptavidin Mutein Matrix and Superdex 75. After purification, GDP-loaded KRAS, NRAS, and HRAS proteins were immobilized on the surface of Sensor Chip CAP (Cytiva) coated with Biotin CAPture Reagent in an immobilization amount of about 100 to 300 RU. Binding of each compound was evaluated by the Single Cycle Kinetics method, and a running buffer or a compound solution was added to the RAS protein non-immobilized surface and the immobilized surface to obtain a binding response. The flow rate was set to 100 µL/min, and in the compound-adding cycle, compound solutions having different concentrations were intermittently added for 75 seconds each, starting from a low concentration. […] In the blank cycle, a running buffer was intermittently added and not the compound solution. The Biotin CAPture Reagent and RAS proteins were immobilized for each cycle, and at the end of each cycle, the sensor chip was regenerated by the regeneration solution appended to the Biotin CAPture Kit (Cytiva). Measurement was carried out at 30°C.
(§3) The resulting sensorgram was subjected to curve fitting based on a 1:1 binding model on Biacore Insight Evaluation Software or T200 Evaluation Software, and thereby the dissociation constant KD of each compound with respect to KRAS, NRAS, and HRAS was determined. […] Blank indicates a compound from which the KD value with respect to NRAS or HRAS was not obtained.

HRAS wild-type protein = HRAS wild-type protein (Homo sapiens, UniProt P01112); assay: Binding to HRAS by surface plasmon resonance (SPR), KD and KD ratio to KRAS
Chain of HRAS wild-type protein (P01112 whole entry): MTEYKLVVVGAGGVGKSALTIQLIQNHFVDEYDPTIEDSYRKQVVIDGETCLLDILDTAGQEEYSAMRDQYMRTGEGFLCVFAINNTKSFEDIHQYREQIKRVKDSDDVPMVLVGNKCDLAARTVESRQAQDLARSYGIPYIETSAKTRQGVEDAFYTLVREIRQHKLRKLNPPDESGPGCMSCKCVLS
Method: as §1, §2, §3

[2] = test system: human lung cancer strain NCI-H441; type: cell-based
Procedure, shortened: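 Signal came from […] measured per well once the reagent was added. Beforehand, cells were cultured at 37°C and 5% carbon dioxide on a compound series serially diluted in dimethyl sulfoxide.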

[3] = ratio of the KD value with respect to GDP-bound NRAS wild-type protein to the KD value with respect to KRAS
[4] = ratio of the KD value with respect to HRAS wild-type protein to the KD value with respect to KRAS
[5] = ratio of KD for GDP-bound NRAS wild-type protein to KD for KRAS
[6] = ratio of KD for HRAS wild-type protein to KD for KRAS
[7] = ratio of KD value for GDP-bound NRAS wild-type protein to KD value for KRAS (SPR)
[8] = ratio of KD value for HRAS wild-type protein to KD value for KRAS (SPR)

Row | SMILES | NRAS /KRAS [1, 3] | HRAS /KRAS (HRAS wild-type protein; [4]) | IC50 [2] | NRAS /KRAS [1, 5] | HRAS /KRAS (HRAS wild-type protein; [6]) | NRAS /KRAS [1, 7] | HRAS /KRAS (HRAS wild-type protein; [8])
1 | CCCOC[C@H]1C(=O)N[C@@H]([C@@H](C)CC)C(=O)N(C)CC(=O)N(C)[C@H]2C/C=C\CCN(C2=O)[C@@H](Cc2ccc(C(F)(F)F)cc2)C(=O)N(C)CC(=O)N[C@@H](CCc2ccc(C(F)(F)F)c(OC)c2)C(=O)N2C[C@H](OCC)C[C@H]2C(=O)NC2(CC(C)(C)C2)C(=O)N(C)[C@@H](C2CCCC2)C(=O)N(C)[C@H](C(=O)N(C)CC)CC(=O)N1C [PP1973] | A (a compound having 10 or more and less than 20 is denoted as A) | B (a compound having 3 or more and less than 10 is denoted as B) | 8.7 nM | – | – | – | –
2 | CCCN1C(=O)[C@@H]2CCN2C(=O)[C@H](C)N(C)C(=O)[C@H]([C@@H](C)CC)NC(=O)[C@H](C2CCC2)N(C)C(=O)C[C@@H](C(=O)N2CCOCC2)N(C)C(=O)[C@H](C2CCCC2)N(C)C(=O)C2(CCCC2)NC(=O)[C@@H]2CCCN2C(=O)[C@H](CCc2ccc(C(F)(F)F)c(Cl)c2)NC(=O)CN(C)C(=O)[C@@H]1Cc1ccc(C(F)(F)F)cc1 [PP0192] ([NMeGly(cBu)]I[NMeA][Aze][NPrPhe(4-CF3)][Sar][hPhe(3-Cl-4-CF3)]P[Ac5c][NMeGly(cPent)][NMeD]-Morpholide; lactam N-11) | – | – | 2.6 nM | C (A compound having a KD ratio of 0.1 or more and less than 3 is denoted as C) | B (a compound having 3 or more and less than 10 is denoted as B) | – | –
3 | CCO[C@@H]1C[C@H]2C(=O)NC3(CCC3)C(=O)N(C)[C@@H](C3CCCC3)C(=O)N(C)[C@H](C(=O)N3CCOCC3)CC(=O)N(C)[C@@H](CC(C)C)C(=O)N[C@@H](C3CC(F)(F)C3)C(=O)N(C)CC(=O)N(C)[C@H]3CCCCN(C3=O)[C@@H](Cc3ccc(C(F)(F)F)cc3)C(=O)N(C)CC(=O)N[C@@H](CCc3cc(F)c(C(F)(F)F)c(F)c3)C(=O)N2C1 [PP0807] | – | – | 16.7 nM | B (a compound having 3 or more and less than 10 is denoted as B) | B (a compound having 3 or more and less than 10 is denoted as B) | – | –
4 | CCCN1CC(=O)NC2(CCCC2)C(=O)N(C)[C@@H](C2CCCC2)C(=O)N(C)[C@H](C(=O)N2CCOCC2)CC(=O)N(C)[C@@H](CC(C)C)C(=O)N[C@@H]([C@@H](C)CC)C(=O)N(CC)CC(=O)N(C)CC(=O)N(CCC)[C@@H](Cc2ccc(C(F)(F)F)cc2)C(=O)N(C)CC(=O)N[C@@H](CCc2ccc(C(F)(F)F)c(Cl)c2)C1=O [PP0301] ([NMeL]I[NEtG][Sar][NPrPhe(4-CF3)][Sar][hPhe(3-Cl-4-CF3)][NPrGly][Ac5c][NMeGly(cPent)][NMeD]-Morpholide; lactam N-11) | – | – | 88.2 nM | B (a compound having 3 or more and less than 10 is denoted as B) | C (A compound having a KD ratio of 0.1 or more and less than 3 is denoted as C) | – | –
5 | CCO[C@@H]1C[C@H]2C(=O)NC3(CC(C)(C)C3)C(=O)N(C)[C@@H](C3CCCC3)C(=O)N(C)[C@H](C(=O)N(C)CC)CC(=O)N(C)[C@@H](C3CC3)C(=O)N[C@@H]([C@@H](C)CC)C(=O)N(C)CC(=O)N(C)[C@H]3C/C=C\CCN(C3=O)[C@@H](Cc3ccc(C(F)(F)F)cc3)C(=O)N(C)CC(=O)N[C@@H](CCc3ccc(C(F)(F)F)c(OC)c3)C(=O)N2C1 [PP1981] | A (a compound having 10 or more and less than 20 is denoted as A) | A (a compound having 10 or more and less than 20 is denoted as A) | 20.7 nM | – | – | – | –
6 | CCC[C@@H]1C[C@H]2C(=O)NC3(CC(C)(C)C3)C(=O)N(C)[C@@H](C3CCCC3)C(=O)N(C)[C@H](C(=O)N(C)C)CC(=O)N(C)[C@@H](C)C(=O)N[C@@H]([C@@H](C)CC)C(=O)N(C)CC(=O)N(C)[C@H]3C/C=C\CCN(C3=O)[C@@H](Cc3ccc(C(F)(F)F)cc3)C(=O)N(C)CC(=O)N[C@@H](CCc3cc(F)c(C(F)(F)F)c(F)c3)C(=O)N2C1 [PP2273] | AA (a compound having 20 or more is denoted as AA) | A (a compound having 10 or more and less than 20 is denoted as A) | 16 nM | – | – | – | –
7 | CC[C@H](C)[C@@H]1NC(=O)[C@H](CC2CC2)N(C)C(=O)C[C@@H](C(=O)N(C)C)N(C)C(=O)[C@H](C2CCCC2)N(C)C(=O)C2(CCC2)NC(=O)[C@@H]2C[C@@H](C(F)(F)F)CN2C(=O)[C@H](CCc2cc(F)c(C(F)(F)F)c(F)c2)NC(=O)CN(C)C(=O)[C@H](Cc2ccc(C(F)(F)F)cc2)N2CC/C=C\C[C@@H](C2=O)N(C)C(=O)CN(C)C1=O [PP1498] | – | – | 10.3 nM | – | – | A (a compound having 10 or more and less than 20 is denoted as A) | A (a compound having 10 or more and less than 20 is denoted as A)
8 | CCO[C@@H]1C[C@H]2C(=O)NC3(CCCC3)C(=O)N(C)[C@@H](C3CCCC3)C(=O)N(C)[C@H](C(=O)N3CCOCC3)CC(=O)N(C)[C@@H](CC)C(=O)N[C@@H]([C@@H](C)CC)C(=O)N(C)CC(=O)N(C)[C@H]3CC(C)=CCN(C3=O)[C@@H](Cc3ccc(C(F)(F)F)cc3)C(=O)N(C)CC(=O)N[C@@H](CCc3cc(F)c(C(F)(F)F)c(F)c3)C(=O)N2C1 [PP1043] | – | – | 387 nM | C (A compound having a KD ratio of 0.1 or more and less than 3 is denoted as C) | C (A compound having a KD ratio of 0.1 or more and less than 3 is denoted as C) | – | –
9 | CC[C@H](C)[C@@H]1NC(=O)[C@H](CC(C)C)N(C)C(=O)C[C@@H](C(=O)N2CCOCC2)N(C)C(=O)[C@H](C2CCCC2)N(C)C(=O)C2(CCCC2)NC(=O)[C@@H]2CCCN2C(=O)[C@H](CCc2ccc(C(F)(F)F)c(Cl)c2)NC(=O)CN(C)C(=O)[C@H](Cc2ccccc2)N(CC)C(=O)[C@@H]2CCN2C(=O)[C@H](C)N(C)C1=O [PP0215] ([NMeL]I[NMeA][Aze][NEtPhe][Sar][hPhe(3-Cl-4-CF3)]P[Ac5c][NMeGly(cPent)][NMeD]-Morpholide; lactam N-11) | – | – | 4.8 nM | C (A compound having a KD ratio of 0.1 or more and less than 3 is denoted as C) | C (A compound having a KD ratio of 0.1 or more and less than 3 is denoted as C) | – | –
10 | CCCN1C(=O)CN(C)C(=O)[C@@H]2CCN2C(=O)[C@H]([C@@H](C)CC)NC(=O)[C@H](CC(C)C)N(C)C(=O)C[C@@H](C(=O)N2CCOCC2)N(C)C(=O)[C@H](C2CCCC2)N(C)C(=O)C2(CCCC2)NC(=O)[C@@H]2CC(F)(F)CN2C(=O)[C@H](CCc2ccc(C(F)(F)F)c(Cl)c2)NC(=O)CN(C)C(=O)[C@@H]1Cc1ccc(C(F)(F)F)cc1 [PP0403] ([NMeL]I[Aze][Sar][NPrPhe(4-CF3)][Sar][hPhe(3-Cl-4-CF3)][Pro(4,4-F2)][Ac5c][NMeGly(cPent)][NMeD]-Morpholide; lactam N-11) | B (a compound having 3 or more and less than 10 is denoted as B) | B (a compound having 3 or more and less than 10 is denoted as B) | 19.4 nM | – | – | – | –
11 | CCC[C@H]1C(=O)N[C@@H]([C@@H](C)CC)C(=O)N(C2CC2)CC(=O)N(C)[C@H]2C/C=C\CCN(C2=O)[C@@H](Cc2ccc(C)cc2)C(=O)N(C)CC(=O)N[C@@H](CCc2ccc(C3CC3)c(OC)c2)C(=O)N2C[C@H](OCC)C[C@H]2C(=O)NC2(CC(C)(C)C2)C(=O)N(C)[C@@H](C2CCCC2)C(=O)N(C)[C@H](C(=O)N(C)C)CC(=O)N1C [PP2883] | – | – | 76.2 nM | A (a compound having 10 or more and less than 20 is denoted as A) | A (a compound having 10 or more and less than 20 is denoted as A) | – | –
12 | CCC[C@H]1C(=O)N[C@@H]([C@@H](C)CC)C(=O)N(C)CC(=O)N(C)[C@H]2C/C=C\CCN(C2=O)[C@@H](Cc2ccc(C)cc2)C(=O)N(C)CC(=O)N[C@@H](CCc2ccc(C(F)(F)F)c(OC)c2)C(=O)N2C[C@H](OCC)C[C@H]2C(=O)NC2(CCC2)C(=O)N(C)[C@@H](C2CCCC2)C(=O)N(C)[C@H](C(=O)N(C)C)CC(=O)N1C [PP1871] | – | – | 13.1 nM | – | – | A (a compound having 10 or more and less than 20 is denoted as A) | A (a compound having 10 or more and less than 20 is denoted as A)
